Assay results reported in patent publication US20260234147A1 (priority 2023, published 2026).
Read-outs that look alike come from different tables or passages of the source.

Assays:
hMOR [1] = biological target: T1, hMOR (Homo sapiens, UniProt P35372); assay: Radioligand binding assay (Eurofins Cerep), [3H]DAMGO displacement
hKOR = hKOR (Homo sapiens, UniProt P41145); assay: Radioligand binding assay (Eurofins Cerep), [3H]U69,593 displacement
hDOR = hDOR (Homo sapiens, UniProt P41143); assay: Radioligand binding assay (Eurofins Cerep), [3H]DADLE displacement
Chain of hDOR (P41143 whole entry): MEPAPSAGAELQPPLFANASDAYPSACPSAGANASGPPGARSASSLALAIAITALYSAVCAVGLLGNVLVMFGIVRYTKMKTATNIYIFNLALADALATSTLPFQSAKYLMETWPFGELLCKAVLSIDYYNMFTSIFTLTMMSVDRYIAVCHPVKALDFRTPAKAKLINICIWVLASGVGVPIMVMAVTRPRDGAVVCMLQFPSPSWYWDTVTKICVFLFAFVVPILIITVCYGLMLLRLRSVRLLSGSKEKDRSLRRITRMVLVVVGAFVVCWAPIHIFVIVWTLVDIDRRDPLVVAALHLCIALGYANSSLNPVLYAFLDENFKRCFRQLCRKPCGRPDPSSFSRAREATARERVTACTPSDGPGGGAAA

α2A adrenergic receptor = biological target: T2, α2A adrenergic receptor (Homo sapiens, UniProt P08913); assay: Radioligand binding assay (Eurofins Cerep), [3H]RX 821002 displacement
T2 construct: Eurofins Cerep (contract screening)
T2 sequence (P08913 1-465): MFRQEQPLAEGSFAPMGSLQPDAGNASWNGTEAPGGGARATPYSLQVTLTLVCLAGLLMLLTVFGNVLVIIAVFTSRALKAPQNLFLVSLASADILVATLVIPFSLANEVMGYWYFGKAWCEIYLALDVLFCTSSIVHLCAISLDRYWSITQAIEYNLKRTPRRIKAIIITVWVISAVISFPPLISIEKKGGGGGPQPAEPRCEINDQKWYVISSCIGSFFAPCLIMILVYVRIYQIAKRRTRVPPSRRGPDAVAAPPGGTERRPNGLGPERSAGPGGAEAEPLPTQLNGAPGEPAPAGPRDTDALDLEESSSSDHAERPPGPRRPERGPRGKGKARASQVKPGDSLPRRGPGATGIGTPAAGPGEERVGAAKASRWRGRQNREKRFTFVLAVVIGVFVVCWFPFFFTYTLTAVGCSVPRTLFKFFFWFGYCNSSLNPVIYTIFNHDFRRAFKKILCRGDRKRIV

α2C adrenergic receptor = biological target: T3, α2C adrenergic receptor (Homo sapiens, UniProt P18825); assay: as above
T3 construct: Eurofins Cerep (contract screening)
T3 sequence (P18825 1-462): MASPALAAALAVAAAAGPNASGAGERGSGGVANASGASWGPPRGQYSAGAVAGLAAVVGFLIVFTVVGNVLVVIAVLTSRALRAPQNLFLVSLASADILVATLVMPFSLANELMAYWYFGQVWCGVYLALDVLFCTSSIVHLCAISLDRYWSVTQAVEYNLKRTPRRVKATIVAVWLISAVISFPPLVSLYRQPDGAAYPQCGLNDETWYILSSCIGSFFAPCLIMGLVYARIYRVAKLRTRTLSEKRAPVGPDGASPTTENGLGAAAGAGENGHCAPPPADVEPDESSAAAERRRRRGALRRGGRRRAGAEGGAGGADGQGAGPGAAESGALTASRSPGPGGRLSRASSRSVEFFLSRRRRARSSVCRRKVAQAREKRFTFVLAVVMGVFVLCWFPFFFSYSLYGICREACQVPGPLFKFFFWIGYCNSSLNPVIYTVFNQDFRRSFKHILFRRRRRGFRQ

hMOR [2] = biological target: T1, hMOR; assay: cell-based; design: expressed in transfected cells; conditions: CHO
[3] = Metabolic stability in rat liver microsomes; assay type: in vitro ADME; conditions: in vitro intrinsic clearance in RLM scaled to whole organ (rat)
Description: In vitro metabolic stability of each compound was determined using rat liver microsomes in triplicate. Verapamil was used as a positive control to check the activity of the microsomes. The incubation mixtures consisted of rat liver microsomes (1 mg microsomal protein/ml), substrate (1 μM), and reduced NADPH (1 mM) in a total volume of 0.4 ml potassium phosphate buffer (50 mM, pH 7.4). Reactions were initiated with the addition of NADPH and kept in an incubator shaker at 37° C. Aliquots of 25 μl were withdrawn at 0, 5, 10, 15, 30, and 60 min and mixed with 125 μl of acetonitrile with formic acid (0.1% v/v) containing phenacetin (50 ng/ml; internal standard) for the termination of the reaction. The samples were then vortex mixed and filtered through a […] 96-well membrane filtration plate under centrifugation at speed of 2000×g for 5 min at 4° C. The filtrates were subjected to UPLC-mass spectrometry (MS/MS) analysis.
The intrinsic clearance of the compounds was calculated using a half-life employing the ‘substrate depletion’ approach. The apparent half-life was calculated from the pseudo-first-order rate constants obtained by linear regression of log (concentration) and time plots. The in vitro intrinsic clearance of IFN was estimated using the formula: […]
Where k is the slope of the line obtained by plotting the natural logarithmic of the percentage of parent remaining versus time and V is the volume of incubation.
The in vitro intrinsic clearance was scaled to whole-organ (hepatic) in vivo intrinsic CL (CLint,H) using the scaling factors available in the literature using equation (Mahmood I. Application of allometric principles for the prediction of pharmacokinetics in human and veterinary drug development. Advanced drug delivery reviews, 2007, 59(11), 1177-1192)
MPPGL represents the microsomal protein per gram of Sprague Dawley rat liver (45 mg/g) and liver weight per kg body weight was 40 g/kg.

hMOR [4] = biological target: T1, hMOR; assay: Cyclic adenosine 3′,5′-monophosphate (cAMP) assay in hMOR-CHO cells; assay type: cell-based; conditions: N=1, control agonist DAMGO
[5] = Table 3-1, 3 independent experiments, read-out: Ki (nM ± SEM) KOR
[6] = Table B1′, read-out: KOR Ki ± SEM
[7] = Table 3-1, 3 independent experiments, read-out: Ki (nM ± SEM) DOR
[8] = Table B1′, read-out: DOR Ki ± SEM
[9] = Table 3-1, 3 independent experiments, read-out: Ki (nM ± SEM) a2A-AR
[10] = Table B1′, read-out: alpha2A Ki ± SEM
[11] = Ki (nM ± SEM) a2C-AR, Table 3-1, 3 independent experiments
[12] = Table A1, data summary #1, read-out: KOR Ki ± SEM
[13] = Table A4, data summary #2, read-out: KOR Ki ± SEM

Chain of hKOR (P41145 whole entry): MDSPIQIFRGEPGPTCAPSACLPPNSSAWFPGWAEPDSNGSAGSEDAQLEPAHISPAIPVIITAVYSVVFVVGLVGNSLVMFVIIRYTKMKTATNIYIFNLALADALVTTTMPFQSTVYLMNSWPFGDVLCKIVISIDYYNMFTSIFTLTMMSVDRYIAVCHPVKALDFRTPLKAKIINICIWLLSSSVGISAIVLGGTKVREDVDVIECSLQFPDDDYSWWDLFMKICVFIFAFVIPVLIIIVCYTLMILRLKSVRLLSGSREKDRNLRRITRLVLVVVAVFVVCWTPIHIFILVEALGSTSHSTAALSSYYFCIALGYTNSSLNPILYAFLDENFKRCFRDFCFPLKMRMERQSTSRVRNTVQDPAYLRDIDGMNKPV
T1 sequence (P35372 whole entry): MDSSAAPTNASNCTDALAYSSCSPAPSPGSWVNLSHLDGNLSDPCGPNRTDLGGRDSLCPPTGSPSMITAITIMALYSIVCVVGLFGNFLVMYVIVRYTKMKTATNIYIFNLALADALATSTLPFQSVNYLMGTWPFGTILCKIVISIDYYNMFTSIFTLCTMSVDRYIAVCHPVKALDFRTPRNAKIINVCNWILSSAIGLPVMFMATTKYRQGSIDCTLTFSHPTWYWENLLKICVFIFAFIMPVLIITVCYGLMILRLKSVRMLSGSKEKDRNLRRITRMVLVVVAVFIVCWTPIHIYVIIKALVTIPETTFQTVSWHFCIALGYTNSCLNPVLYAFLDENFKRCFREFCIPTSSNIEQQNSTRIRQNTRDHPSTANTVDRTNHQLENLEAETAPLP

| SMILES | Ki (hKOR; [5]) | Ki (hKOR; [6]) | Ki (hDOR; [7]) | Ki (hDOR; [8]) | Ki (α2A adrenergic receptor; [9]) | Ki (α2A adrenergic receptor; [10]) | Ki (α2C adrenergic receptor; [11]) | Emax (hMOR [2]; read-out: MOR Emax ± SEM (%)) | Ki (hKOR; [12]) | Ki (hKOR; [13]) | also measured |
| --- | --- | --- | --- | --- | --- | --- | --- | --- | --- | --- | --- |
| CC[C@@H]1CN2CCc3c([nH]c4ccccc34)[C@@H]2C[C@@H]1/C(=C\OC)C(=O)OC [Corynantheidine, reference compound] | 4060 ± 969 nM | 1030 ± 162 nM | 2790 ± 171 nM | 2410 ± 1200 nM | 351 ± 58.7 nM | 68 ± 12 nM | 135 ± 12.5 nM | 8.32 ± 3.4% | – | – | SR: Selectivity Ratio (KiMOR/Kiα2A) (hMOR [1]; Table 3-1): 0.97; Ki (hMOR [1]; Table 3-7, human MOR, read-out: MOR Ki (nM ± SEM)): 450 ± 100 nM; Ki (hMOR [1]; Table B1′, read-out: MOR Ki ± SEM): 2520 ± 372 nM |
| CC[C@@H]1CN2CCc3c([nH]c4cccc(OC)c34)[C@@H]2C[C@@H]1/C(=C\OC)C(=O)OC [Mitragynine, mitragynine, reference compound] | 1530 ± 485 nM | 1530 ± 143 nM | 6800 ± 721 nM | 6800 ± 721 nM | 4090 ± 273 nM | 4090 ± 273 nM | 4040 ± 417 nM | 3.97 ± 9.5% | 1530 nM | 264 nM | Ki (hDOR; Table A1, data summary #1, read-out: DOR Ki ± SEM): 6800 nM; Ki (hDOR; Table A4, data summary #2, read-out: DOR Ki ± SEM): 1950 nM; Ki (α2A adrenergic receptor; Table A1, data summary #1, read-out: Alpha2A Ki ± SEM): 4090 nM; Ki (α2A adrenergic receptor; Table A4, data summary #2, read-out: Alpha2A Ki ± SEM): 1350 nM; Ki (α2A adrenergic receptor; Table B1, mean ± SEM, 3 independent experiments, read-out: Alpha2A Ki ± SEM): 709 ± 91.2 nM; Ki (α2A adrenergic receptor; Table B2, mean ± SEM, 3 independent experiments, read-out: Alpha2A Ki ± SEM): 709 ± 91.2 nM; Ki (α2C adrenergic receptor; Alpha2C Ki ± SEM (nM), Table A1, data summary #1): 4040 nM; Ki (α2C adrenergic receptor; Alpha2C Ki ± SEM (nM), Table B2, mean ± SEM, 3 independent experiments): 4090 ± 372 nM; Whole liver clearance, CL int, H [3]: 35.5 mL/min/kg; Emax (hMOR [2]; read-out: MOR Emax ± SEM (% DAMGO), Table A1, data summary #1): 3.97% |
| CC[C@@H]1CN2CCc3c([nH]c4cccc(OC)c34)[C@@H]2C[C@@H]1/C(=C\OC)C(=O)Nc1ccccc1 [SUSM-528, (E)-2-((2S,3S,12bS)-3-ethyl-8-methoxy-1,2,3,4,6,7,12,12b-octahydroindolo[2,3-a]quinolizin-2-yl)-3-methoxy-N-phenylacrylamide] | – | – | – | – | – | – | – | – | > 10000 nM | 6510 ± 4660 nM | Ki (hMOR [1]; Table A1, data summary #1, read-out: MOR Ki ± SEM): 7770 ± 3620 nM; Ki (hMOR [1]; Table A4, data summary #2, read-out: MOR Ki ± SEM): 498 ± 118 nM; Ki (hDOR; DOR Ki ± SEM (nM), Table A4, data summary #2): > 10000 nM; Ki (α2A adrenergic receptor; Alpha2A Ki ± SEM (nM), Table A1, data summary #1): 6580 ± 2320 nM; Ki (α2A adrenergic receptor; Alpha2A Ki ± SEM (nM), Table A4, data summary #2): 6580 ± 2320 nM; functional activity in cAMP assay (hMOR [4]): agonist, however its potency was less than DAMGO; functional activity in cAMP assay (hMOR [4]; listed as SUSM 528): agonist, but less potent than DAMGO |
